In ChEMBL document CHEMBL4371004, “A-C Estrogens as Potent and Selective Estrogen Receptor-Beta Agonists (SERBAs) to Enhance Memory Consolidation under Low-Estrogen Conditions” (J Med Chem, 2018):
Active and inactive are the calls of the source. The rule behind the calls is not given here.

What was measured:
[1] = target: T1, Androgen receptor (Homo sapiens) (UniProt P10275); assay: Agonist activity at GAL4 DNA binding domain fused androgen receptor ligand binding domain (unknown origin) at 0.25 to 25 uM by FRET-based assay
T1 sequence (whole entry): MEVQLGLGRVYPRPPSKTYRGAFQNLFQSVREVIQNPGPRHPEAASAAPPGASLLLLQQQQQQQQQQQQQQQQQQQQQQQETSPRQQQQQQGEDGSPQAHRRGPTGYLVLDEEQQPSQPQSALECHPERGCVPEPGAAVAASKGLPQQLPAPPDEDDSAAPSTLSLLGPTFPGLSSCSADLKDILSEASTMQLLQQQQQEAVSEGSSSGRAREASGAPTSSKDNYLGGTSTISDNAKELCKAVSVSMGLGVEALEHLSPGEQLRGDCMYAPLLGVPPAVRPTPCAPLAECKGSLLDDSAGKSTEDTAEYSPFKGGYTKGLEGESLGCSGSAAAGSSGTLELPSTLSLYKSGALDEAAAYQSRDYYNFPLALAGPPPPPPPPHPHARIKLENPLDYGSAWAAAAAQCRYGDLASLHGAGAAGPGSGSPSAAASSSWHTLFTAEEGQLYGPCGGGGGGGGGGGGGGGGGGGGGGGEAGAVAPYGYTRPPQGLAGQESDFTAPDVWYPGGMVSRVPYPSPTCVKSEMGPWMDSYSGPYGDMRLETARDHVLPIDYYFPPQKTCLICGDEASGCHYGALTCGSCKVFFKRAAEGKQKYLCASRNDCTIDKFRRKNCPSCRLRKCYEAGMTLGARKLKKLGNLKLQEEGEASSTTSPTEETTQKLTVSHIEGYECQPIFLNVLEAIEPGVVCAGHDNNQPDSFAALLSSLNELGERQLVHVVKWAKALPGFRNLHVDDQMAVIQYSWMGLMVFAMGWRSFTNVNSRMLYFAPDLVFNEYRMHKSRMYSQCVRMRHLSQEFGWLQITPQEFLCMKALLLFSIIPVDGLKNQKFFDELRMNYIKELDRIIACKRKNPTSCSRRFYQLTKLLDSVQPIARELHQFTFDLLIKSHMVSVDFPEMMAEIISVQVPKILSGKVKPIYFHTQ

Mus musculus [2] = assay: Memory enhancement effect in C57BL/6 mouse assessed as time spent with novel object at 1 ng administered as dorsal hippocampal infusion by novel object recognition test; format: functional
Estrogen receptor = target: T2, Estrogen receptor (Homo sapiens, UniProt P03372)
T2 sequence (P03372 whole entry): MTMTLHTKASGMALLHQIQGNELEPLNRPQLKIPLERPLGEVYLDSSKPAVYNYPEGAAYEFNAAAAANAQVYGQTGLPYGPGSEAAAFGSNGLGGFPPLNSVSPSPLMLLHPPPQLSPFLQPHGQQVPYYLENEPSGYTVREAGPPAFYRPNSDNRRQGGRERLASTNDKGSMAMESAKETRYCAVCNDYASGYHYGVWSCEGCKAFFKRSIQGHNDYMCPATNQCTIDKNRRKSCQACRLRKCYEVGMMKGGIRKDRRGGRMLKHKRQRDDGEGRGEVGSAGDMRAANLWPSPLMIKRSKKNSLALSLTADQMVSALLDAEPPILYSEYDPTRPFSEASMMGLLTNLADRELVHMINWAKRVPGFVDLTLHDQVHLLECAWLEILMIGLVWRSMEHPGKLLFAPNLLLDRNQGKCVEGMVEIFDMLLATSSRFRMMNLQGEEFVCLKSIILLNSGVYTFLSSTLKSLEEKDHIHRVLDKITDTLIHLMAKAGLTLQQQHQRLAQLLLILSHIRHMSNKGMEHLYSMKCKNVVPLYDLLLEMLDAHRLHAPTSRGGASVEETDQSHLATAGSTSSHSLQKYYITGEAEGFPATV

Mus musculus [3] = assay: Memory enhancement effect in C57BL/6 mouse assessed as time spent with novel object at 0.5 mg/kg, po administered via gavage by novel object recognition test; format: functional
Cytochrome P450 1A2 = target: T3, Cytochrome P450 1A2 (Homo sapiens, UniProt P05177); assay: Inhibition of human recombinant CYP1A2 up to 100 uM preincubated for 10 mins followed by NADPH addition and measured after 10 to 30 mins by P450-Glo luminescence assay; format: ADME; settings: recombinant enzyme
T3 sequence (P05177 whole entry): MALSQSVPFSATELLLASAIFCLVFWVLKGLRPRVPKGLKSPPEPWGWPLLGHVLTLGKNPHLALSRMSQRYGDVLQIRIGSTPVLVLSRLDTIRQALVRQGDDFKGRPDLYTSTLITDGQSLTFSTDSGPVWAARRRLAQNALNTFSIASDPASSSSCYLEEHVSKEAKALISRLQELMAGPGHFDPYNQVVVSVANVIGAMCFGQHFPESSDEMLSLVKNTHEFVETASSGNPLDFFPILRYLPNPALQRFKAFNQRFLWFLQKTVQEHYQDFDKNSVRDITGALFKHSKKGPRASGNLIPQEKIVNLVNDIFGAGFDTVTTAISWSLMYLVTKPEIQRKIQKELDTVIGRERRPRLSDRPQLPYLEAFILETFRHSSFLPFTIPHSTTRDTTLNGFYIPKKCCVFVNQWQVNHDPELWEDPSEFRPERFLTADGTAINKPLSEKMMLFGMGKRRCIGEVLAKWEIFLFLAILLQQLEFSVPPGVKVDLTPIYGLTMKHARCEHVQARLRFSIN

## OC[C@H]1CC[C@H](c2ccc(O)cc2)CC1
[1]
  Activity: inactive
Mus musculus [2]
  Time: 1.08 s
Estrogen receptor
  EC50: 289 nM
Mus musculus [3]
  Time: 5.3 s
Cytochrome P450 1A2
  inhibition (INH): Not Active
